Results on 7 compounds are retold here after patent publication US10842874B2, “Sensitization of bacterial cells to quinolone antibiotics” (Massachusetts Institute of Technology, priority 2017, dated 2020).

For assay [1], the system named is E. coli K12 strain MG1655 stationary phase cells. Briefly: Potentiation assays on stationary phase cultures (metabolites / oxygen plus antibiotic, CFU/mL). Type of assay: cell-based, Escherichia coli. Particulars: for killing of stationary phase E. coli with glucose-fumarate supplementation: different antibiotic concentrations.
Assay [2] concerns M. smegmatis. To be noted: exponentially growing cultures (1% maximal density).
The test system of assay [3] is E. coli K12 strain MG1655. It counts as cell-based, Escherichia coli. The procedure:
At each time point, cells were also serially diluted in PBS and plated on LB agar plates to determine the CFU/mL at the time of treatment. Time points were taken until cells reached maximum carrying capacity. After 24 hours of treatment, 100 μl of cells from each tube was spun down and re-suspended in PBS on a 96-well plate. Cells were then serially diluted and plated on LB agar plates. The CFU/mL at treatment was normalized by the CFU/mL of stationary phase cells (% max CFU/ml).
An overnight culture of E. coli was diluted 1/10, 1/100, 1/1000, and 1/10000 in non-baffled flasks. […] Cells were spun down and re-suspended in PBS, diluted and plated on LB agar plates to determine CFU/ml.

Assay [4] concerns S. aureus. To be noted: exponentially growing cultures (1% maximal density).
In assay [5] the test system is M. smegmatis. Briefly: Minimum inhibitory concentration (MIC). It counts as cell-based, Mycobacterium smegmatis. To be noted: Mycolicibacterium smegmatis.
The subject of assay [6] is M. smegmatis strain mc^2 155. Briefly: Potentiation assay, glucose-fumarate sensitization of stationary phase culture. Type of assay: cell-based, Mycobacterium smegmatis. Particulars: aerated stationary phase; 0.4% fumarate and/or 0.4% glucose.
Setting [7] is: MOPS rich media, shaking, 1 μg/mL ciprofloxacin.

Values after ≈ are worked out from the molar mass of the structure shown.

In the case of `C[S+](C)[O-]` [DMSO], the “sensitization of stationary phase cultures to ciprofloxacin by the supplement alone” value (“sensitization … by the supplement alone” below) in assay [1] (setting [7]) is reported as “none of these electron acceptors alone was able to sensitize cells”.
In the case of `CC1(C)S[C@@H]2[C@H](NC(=O)[C@H](N)c3ccccc3)C(=O)N2[C@H]1C(=O)O` [ampicillin], in assay [1], the “killing of stationary phase E. coli with glucose-fumarate supplementation” value is reported as “did not kill stationary phase cells”.
As a reminder, the MIC is the least concentration at which growth counts as inhibited. Regarding `O=C(O)c1cn(C2CC2)c2cc(N3CCNCC3)c(F)cc2c1=O` [ciprofloxacin], the “number of viable cells at higher doses” value in assay [2] and in assay [4] was “below the limit of detection” each time. For the same compound, the “killing at 1 μg/mL (100xMIC)” value in assay [3] (1 μg/mL ciprofloxacin, low and intermediate cell density) is “maximal killing at low cell density”. In assay [3] (dose 1000x the MIC, treatment time 24 hours), the “ability to kill the high-density cell population (DDP)” value is “inability of ciprofloxacin to kill a fraction of the cell population”. Further, the “reduction in persister cells of ΔrelAspoT mutant compared to wildtype” value in assay [3] (stationary phase, 1 μg/mL ciprofloxacin, ppGpp0 strain) is 5.5 fold. Moreover, the “susceptibility of quinolone hypersensitive mutant recB” value in assay [3] (ΔrecB mutant, stationary phase) was “hypersensitive in stationary phase”. Further, in assay [5], the minimal inhibitory concentration (MIC) was found to be 0.5 µg/mL (≈ 1.51 µM).
Regarding `O=C(O)/C=C/C(=O)O` [fumarate], the “sensitization of stationary phase cultures to ciprofloxacin” value in assay [6] was “weakly”. In addition, the “sensitization … by the supplement alone” value in assay [1] (setting [7]) was “none of these electron acceptors alone was able to sensitize cells”. The “sensitization of high-density cultures to ciprofloxacin by electron acceptor in combination with glucose” value in assay [1] (MOPS rich media, shaking, 1 μg/mL ciprofloxacin, with glucose) is listed as “synergistically sensitized”.
Turning to `O=[N+]([O-])[O-].[K+]` [nitrate, potassium nitrate], the “sensitization … by the supplement alone” value in assay [1] (setting [7]) is on record as “none of these electron acceptors alone was able to sensitize cells”.
In the case of `O=O` [oxygen], the “susceptibility of stationary phase E. coli to ciprofloxacin with supplementation” value in assay [1] (static stationary phase culture, 0.4% glucose, bubbled air, oxygen tension 5-6%, 1 μg/mL ciprofloxacin) is listed as “minimal effect”.
As for gentamicin, the “killing of stationary phase E. coli with glucose-fumarate supplementation” value in assay [1] is reported as “sensitized”.
